Among the test systems are T47D; RPMI-8226; SF-268; SK-OV-3; NCI-H226; OVCAR-4; CCRF-CEM; SR; MDA-MB-231; UACC-62; SK-MEL-5; SNB-19; MCF7; IGROV-1; OVCAR-8; KM12; SNB-75; OVCAR-3; LOX IMVI; HOP-92.
What all share (experiment): DTP human tumour cell line panel, 48 h

As usually defined, the GI50 is the concentration giving 50% growth inhibition.

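Growth conditions: 96-well plates. Treatment: test compound, 48 hours, 5 concentrations. Analysis: linear interpolation between bracketing concentrations; unreached endpoints set to highest concentration. GI50: concentration for 50% inhibition of growth.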 Calls of active or inactive are those of the source. Rule as the data show it: active = GI50 up to about 1.1 µM and inactive = higher.

For `CCN(CC)CCCNc1ccc2ncn3c4ccc(O)cc4c(=O)c1c23`, the GI50 was > 10 µM (inactive) in the assay with T47D; 2.06 µM (inactive) in the assay with RPMI-8226; 1.66 µM (inactive) in the assay with SF-268; 0.527 µM (active) in the assay with SK-OV-3; 0.214 µM (active) with NCI-H226; 1.01 µM (active) with OVCAR-4. Moreover, the GI50 is 0.166 µM (active) with CCRF-CEM; 0.171 µM (active) in the assay with SR; 1.88 µM (inactive) in the assay with MDA-MB-231; 3.21 µM (inactive) in the assay on UACC-62; 3.41 µM (inactive) in the assay on SK-MEL-5; 2.21 µM (inactive) with SNB-19. Further, the GI50 with MCF7 was 0.687 µM (active); in the assay on IGROV-1 it was 1.39 µM (inactive); in the assay with OVCAR-8, 0.467 µM (active); with KM12 it was 3.85 µM (inactive); in the assay on SNB-75, 0.871 µM (active); in the assay on OVCAR-3 it was 8.69 µM (inactive). Also, the GI50 with LOX IMVI is 0.392 µM (active); in the assay on HOP-92 it was 0.718 µM (active).

For `Cc1cc(O)cc2c1c(=O)c1ccccc1n2C`, the GI50 is 73.5 µM (inactive) in the assay on T47D; > 100 µM (inactive) in the assay on RPMI-8226; 31.7 µM (inactive) in the assay with SF-268; 75.2 µM (inactive) in the assay with SK-OV-3; 49.1 µM (inactive) in the assay with NCI-H226; 80.2 µM (inactive) in the assay on OVCAR-4. In addition, the GI50 is > 100 µM (inactive) in the assay with CCRF-CEM; 48.5 µM (inactive) in the assay with SR; > 100 µM (inactive) in the assay with MDA-MB-231; > 100 µM (inactive) in the assay on UACC-62; 62.5 µM (inactive) in the assay with SK-MEL-5; 34.8 µM (inactive) in the assay with SNB-19. Moreover, the GI50 was > 100 µM (inactive) in the assay with MCF7; > 100 µM (inactive) in the assay with IGROV-1; 31.7 µM (inactive) in the assay on OVCAR-8; > 100 µM (inactive) in the assay on KM12; 87.5 µM (inactive) in the assay on SNB-75; > 100 µM (inactive) in the assay on OVCAR-3. For the same molecule, the GI50 in the assay on LOX IMVI was > 100 µM (inactive); in the assay on HOP-92, 39.4 µM (inactive).

Turning to `CCCCCC(=O)Nc1[nH]nnc1C#N`, the GI50 with T47D, in the assay with RPMI-8226, in the assay with SF-268, in the assay with SK-OV-3, with NCI-H226 and with OVCAR-4 was > 100 µM (inactive) in each case. Further, the GI50 in the assay on CCRF-CEM, in the assay on SR, with MDA-MB-231, in the assay with UACC-62, with SK-MEL-5 and with SNB-19 was > 100 µM (inactive) throughout. Also, the GI50 with MCF7, in the assay on IGROV-1, with OVCAR-8, in the assay on KM12, in the assay on SNB-75 and with OVCAR-3 was > 100 µM (inactive) in each case. The GI50 in the assay with LOX IMVI and in the assay with HOP-92 was > 100 µM (inactive) in each case.

As to `COC(=O)/C=C1/OC(c2ccc(C)cc2C)=CC1=O`, the GI50 with T47D is 20.1 µM (inactive); with RPMI-8226, 3.63 µM (inactive); in the assay on SF-268, 17.8 µM (inactive); in the assay with SK-OV-3, 18.7 µM (inactive); in the assay with NCI-H226, 19.5 µM (inactive); in the assay with OVCAR-4 it was > 10 µM (inactive). For the same molecule, the GI50 is 3.42 µM (inactive) in the assay on CCRF-CEM; 3.4 µM (inactive) in the assay on SR; 14.3 µM (inactive) in the assay on MDA-MB-231; 10.6 µM (inactive) in the assay with UACC-62; 16.4 µM (inactive) in the assay with SK-MEL-5; > 10 µM (inactive) with SNB-19. Besides, the GI50 with MCF7 is 8.26 µM (inactive); in the assay on IGROV-1 it was 4.47 µM (inactive); in the assay on OVCAR-8, 10 µM (inactive); with KM12, 17.6 µM (inactive); in the assay with SNB-75, 12.9 µM (inactive); in the assay with OVCAR-3, 26.9 µM (inactive). Further, the GI50 is 6.17 µM (inactive) in the assay with LOX IMVI and 16.6 µM (inactive) in the assay on HOP-92.

On to `Cn1c(-c2ccc(C=O)o2)ccc1-c1ccc(C=O)o1`, for which the GI50 was 26.1 µM (inactive) in the assay with T47D; 57.1 µM (inactive) in the assay on RPMI-8226; > 100 µM (inactive) with SK-OV-3; 76.4 µM (inactive) with NCI-H226; 53.1 µM (inactive) in the assay with OVCAR-4; > 100 µM (inactive) with CCRF-CEM. Besides, the GI50 with SR was 30.9 µM (inactive); in the assay with MDA-MB-231, 38 µM (inactive); with UACC-62 it was 74.1 µM (inactive); with SK-MEL-5, 30.9 µM (inactive); with SNB-19, 54.8 µM (inactive); with MCF7, 28.8 µM (inactive). Moreover, the GI50 in the assay on IGROV-1 is 36.9 µM (inactive); with OVCAR-8 it was 30.4 µM (inactive); in the assay on KM12, 36.2 µM (inactive); in the assay on SNB-75, 39.5 µM (inactive); with OVCAR-3 it was 26.2 µM (inactive); in the assay with LOX IMVI, 31.7 µM (inactive). In the assay on HOP-92, the GI50 is 36.6 µM (inactive).

Turning to `C[C@@H]1O[C@@H]2OCC[C@@H]2C2=C1C(=O)c1ccccc1C2=O`, the GI50 in the assay with T47D was 5.12 µM (inactive); with RPMI-8226 it was 7.23 µM (inactive); in the assay on SF-268, 4.97 µM (inactive); in the assay with SK-OV-3, 28.4 µM (inactive); with NCI-H226 it was 26.7 µM (inactive); with OVCAR-4, 4.14 µM (inactive). In addition, the GI50 was 6.87 µM (inactive) in the assay on CCRF-CEM; 4.24 µM (inactive) in the assay on SR; 33.7 µM (inactive) with MDA-MB-231; 4.35 µM (inactive) with UACC-62; 5.94 µM (inactive) in the assay on SK-MEL-5; 18.7 µM (inactive) in the assay with SNB-19. For the same molecule, the GI50 in the assay with MCF7 was 1.25 µM (inactive); in the assay with IGROV-1 it was 1.98 µM (inactive); in the assay with OVCAR-8, 6.85 µM (inactive); in the assay on KM12, 15.2 µM (inactive); in the assay with SNB-75, 9.95 µM (inactive); with OVCAR-3 it was 3.08 µM (inactive). The GI50 in the assay on LOX IMVI is 1.92 µM (inactive); in the assay with HOP-92, 4.38 µM (inactive).

On to `CN(C)c1ccc(/C=N\NC(=O)c2ccccc2Nc2ccccc2C(=O)N/N=C/c2ccc(N(C)C)cc2)cc1`, for which the GI50 in the assay on T47D, with RPMI-8226, in the assay on SF-268, with SK-OV-3, in the assay with NCI-H226 and in the assay with OVCAR-4 was > 100 µM (inactive) each time. Also, the GI50 in the assay on CCRF-CEM was > 100 µM (inactive); in the assay with SR, > 100 µM (inactive); in the assay with MDA-MB-231, 23.3 µM (inactive); in the assay with UACC-62 it was > 100 µM (inactive); with SK-MEL-5, 57 µM (inactive); in the assay on SNB-19, > 100 µM (inactive). The GI50 with MCF7, in the assay with IGROV-1, in the assay with OVCAR-8, with KM12, in the assay on SNB-75 and in the assay with OVCAR-3 was > 100 µM (inactive) in each case. Moreover, the GI50 is 92.9 µM (inactive) in the assay on LOX IMVI and > 100 µM (inactive) in the assay with HOP-92.

Regarding `NC(CS)C(=O)NCCNc1ccc(NCCNC(=O)C(N)CS)c2c1C(=O)c1c(O)ccc(O)c1C2=O` (stereo not drawn), the GI50 is 0.166 µM (active) in the assay with T47D; 0.0417 µM (active) in the assay with RPMI-8226; 0.0246 µM (active) in the assay with SF-268; 0.0124 µM (active) in the assay with SK-OV-3; 0.00847 µM (active) in the assay on NCI-H226; 0.204 µM (active) in the assay with OVCAR-4. Besides, the 50% growth inhibitory concentration (GI50) in the assay with CCRF-CEM is 0.00149 µM (active); with SR, < 0.001 µM (active); in the assay on MDA-MB-231, 0.433 µM (active); in the assay on UACC-62, 0.0223 µM (active); with SK-MEL-5, 0.0948 µM (active); in the assay on SNB-19, 0.0188 µM (active). Further, the GI50 in the assay with MCF7 is 0.00402 µM (active); in the assay on IGROV-1, 0.219 µM (active); in the assay on OVCAR-8, 0.0225 µM (active); in the assay on KM12, 0.135 µM (active); with SNB-75 it was 0.0236 µM (active); in the assay on OVCAR-3, 0.405 µM (active). In addition, the 50% growth inhibitory concentration (GI50) is 0.0185 µM (active) in the assay with LOX IMVI and 0.00638 µM (active) in the assay with HOP-92.

Take `Nc1ccc(Cc2ccc(N)c(C(=O)O)c2)cc1C(=O)O`: the GI50 in the assay on T47D, with RPMI-8226, with SF-268, in the assay with SK-OV-3, with NCI-H226 and with OVCAR-4 was > 100 µM (inactive) throughout. In addition, the GI50 in the assay on CCRF-CEM, with SR, in the assay on MDA-MB-231, in the assay with UACC-62, in the assay with SK-MEL-5 and in the assay on SNB-19 was > 100 µM (inactive) throughout. For the same molecule, the GI50 with MCF7, in the assay with IGROV-1, with OVCAR-8, in the assay on KM12, in the assay with SNB-75 and in the assay on OVCAR-3 was > 100 µM (inactive) each time. The GI50 with LOX IMVI and in the assay on HOP-92 was > 100 µM (inactive) throughout.

Regarding `COc1ccccc1N1CCN(CCCCNC(=O)c2ccc([N+](=O)[O-])o2)CC1`, the GI50 in the assay on T47D is 14.3 µM (inactive); in the assay on RPMI-8226, 19.1 µM (inactive); in the assay with SF-268, 16.7 µM (inactive); in the assay with SK-OV-3, 15.9 µM (inactive); in the assay with NCI-H226 it was 11.7 µM (inactive); in the assay with OVCAR-4 it was 12.5 µM (inactive). The GI50 is 21.1 µM (inactive) in the assay on CCRF-CEM; 5.61 µM (inactive) in the assay with SR; 23.6 µM (inactive) in the assay on MDA-MB-231; 5.93 µM (inactive) in the assay on UACC-62; 6.75 µM (inactive) with SK-MEL-5; 11.8 µM (inactive) with SNB-19. Also, the GI50 in the assay on MCF7 was 4.75 µM (inactive); in the assay with IGROV-1 it was 13.7 µM (inactive); with OVCAR-8 it was 10.6 µM (inactive); with KM12, 5.53 µM (inactive); in the assay on OVCAR-3, 4.52 µM (inactive); with LOX IMVI it was 1.12 µM (active). The GI50 in the assay on HOP-92 is 16.6 µM (inactive).

The values above are taken from ChEMBL document CHEMBL1201862, “PubChem BioAssay data set” (2004).
